Source: publication PMC13195669, “GPR3 Ligands Discovered through Combined Virtual and Conformational Biosensor-Based Screening” (Journal of the American Chemical Society, 2026)

Target: T1, GPR3 (Homo sapiens, UniProt P46089)
T1 construct: host or cells: HEK293A, transient
Experiment: Gs heterotrimer dissociation biosensor (Gs-CASE) in HEK293A cells cotransfected with GPR3
Assay type: cell-based
Settings: HEK293A transiently transfected with Gs-CASE and GPR3; read-out: EC50 of GPR3-dependent BRET increase, Gs dissociation biosensor
Source text: To further delineate the pharmacological properties of 33, we evaluated its activity in signaling assays downstream of GPR3. […] We also investigated whether 33 blocks the activity of previously validated GPR3 ligands–the agonist DPI and the inverse agonist AF64394 (Chart )–in a cAMP assay. […] The differential effect between OEA and oleamide may reflect differences in their conformational and/or positional flexibility within the GPR3 binding pocket. This difference is supported by MD simulations of oleamide in GPR3 and by a comparison of oleic acid binding poses in the highly similar pockets of GPR3 and GPR6. , […]
Cells expressing the conformational GPCR biosensors were grown for 24 h (stable cells) or 48 h (transiently transfected cells) in white 96-well plates and washed with 100 µl of HBSS. […] Three baseline BRET reads were recorded and averaged prior to the addition of serial dilutions of ligands or veh icle control and subsequent BRET reads. […] BRE T donor emission was quantified with a 470/80 nm monochromator. […] Experiments were carried out using a CLARIOstar plate reader.
FRET- and BRET-based measurements of cAMP levels and Gs dissociation/reassociation Transfected cells grown in black 96-well plates were washed twice with 100 µl of HBSS 48 h after transfection and incubated with HBSS. […] FRET donor emission was quantified with a 480/10 nm filter. […]

T1 sequence (P46089 whole entry): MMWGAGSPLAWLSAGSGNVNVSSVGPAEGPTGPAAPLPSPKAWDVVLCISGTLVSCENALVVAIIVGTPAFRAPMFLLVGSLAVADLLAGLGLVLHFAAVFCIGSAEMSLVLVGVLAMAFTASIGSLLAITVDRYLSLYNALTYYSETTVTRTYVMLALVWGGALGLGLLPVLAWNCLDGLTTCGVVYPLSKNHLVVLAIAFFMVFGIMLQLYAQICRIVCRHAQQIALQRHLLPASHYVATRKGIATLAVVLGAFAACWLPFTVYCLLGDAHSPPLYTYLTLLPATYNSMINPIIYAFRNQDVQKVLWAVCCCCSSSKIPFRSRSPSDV

Question: How did the EC50 turn out when N=c1n(Cc2ccccc2)c2ccccc2n1CC1CC1 [compound 33] was run?
Answer: 0.249 µM
